The values below come from patent US11834424B2, “Compounds useful as chaperone-mediated autophagy modulators” (ALBERT EINSTEIN COLLEGE OF MEDICINE, priority 2018, dated 2023).

Molecules are shown by their SMILES.

Data set [1] is described as follows: Pharmacokinetics (plasma and brain levels) in ICR (CD-1) mice. The note with it: ICR (CD-1) mice. The class given is in vivo. The method, then: ICR (CD-1) male mice were fasted at least three horns and water was available ad libitum before the study. Animals were housed in a controlled environment, target conditions: temperature 18 to 29° C., relative humidity 30 to 70%. Temperature and relative humidity was monitored daily. An electronic time controlled lighting system was used to provide a 12 h light/12 h dark cycle. 3 mice for each indicated time point. ICR (CD-1) mice were administered CA77 at 1 mg/kg i.v. and 30 mg/kg p.o. or CA77.1 at 1 mg/kg i.v. (FIG. 2A) and 10 mg/kg p.o. (FIG. 2B). Three (3) mice were included in each dosage and time group. Mice were sacrificed and plasma and brains were obtained at 0.083, 0.25, 0.50, 1.0, 2.0, 4.0, 8.0, and 24.0 hours after administration and drug concentration determined using LC-MS/MS. Brains were removed, homogenized with a tissue homogenizer in cold 5% w/v BSA in phosphate buffer saline (PBS). A 100 microliter aliquots of brain samples were dispensed in to glass culture tubes and mixed with ethyl acetate (800 μl), vortexed, and centrifuged. The organic layer was transferred to a fresh culture tube, dried under nitrogen, and reconstituted in mobile phase for quantitation. Pharmacokinetic parameters were determined by standard methods using Phoenix WinNonlin 6.3 software.
Tables 3A and 3B provide the concentrations of CA77 in ICR (CD-1) mouse plasma (3A) and mouse brain (3B) following i.v. administration of 1 mg/kg CA77. Table 3C provides the brain/plasma ratio of CA77 following i.v. administration of 1 mg/kg CA77. Shaded cells indicate data not included in statistics due to aberrant value. BLQ=Below Limit of Quantitation.
Tables 5A and 5B provide the concentrations of CA77.1 in ICR (CD-1) mouse plasma (5A) and mouse brain (5B) following i.v. administration of 1 mg/kg CA77.1. Table 5C provides the brain/plasma ratio of CA77.1 following i.v. administration of 1 mg/kg CA77.1. The plasma and brain pharmacokinetic parameters for CA77.1 are provided in Table 6. *—cells contain data not present in the statistics.

Data set [2] deals with chaperone-mediated autophagy (CMA) in NIH 3T3 fibroblasts. In words: Photoswitchable KFERQ-Dendra CMA reporter assay in NIH 3T3 fibroblasts. The class given is cell-based. The procedure: The photoactivatable CMA reporter assay was constructed by inserting a sequence of 21 amino acid of Ribonuclease A bearing the CMA-targeting motif in the N-terminus multicloning site of the photoactivatable protein mCherryl or the photoswitchable protein Dendra 2.
NIH 3T3 fibroblasts were stably transduced with a photoconvertible CMA reporter, KFERQ-Dendra. were photoswitched by exposure to a […] (constant current) LED (Norlux, 405 nm) for 10 minutes and at the desired times fixed in 3% formaldehyde. Test cells were exposed to the indicated concentrations of the compounds for 12 hours (FIG. 3A) or 24 hours (FIG. 3B). Cells were imaged using high content microscopy (Operetta, Perkin Elmer) or by capturing images with an Axiovert 200 fluorescence microscope (Zeiss) with apotome and equipped with a 63/1.4 NA oil objective lens and red (ex. 570/30 nm, em. 615/30 nm), cyan (ex. 365/50 nm and em. 530/45 nm) and green (ex. 475/40 nm and em. 535/45 nm) filter sets (Chroma). Images were acquired with a high-resolution CCD camera after optical sectioning through the apotome. CMA activity measured as the average number of fluorescent puncta (CMA active lysosomes) per cell. Values are expressed relative to values in untreated cells that were assigned an arbitrary value of 1 and are mean of >2,500 cells counted per condition. The S.D. in all instances was <0.01% mean value. Table 2 provides a comparison of compounds CA39.1 and its comparative example CA39 and CA77.01 and its comparative example CA77.
A general note: Reporter assays use an easily measured gene product as a stand-in for the process of interest.

A short description of a further data set: in vitro. The note with it: for CLint(mic) / Remaining (T = 60 min): 3 μM; for Remaining (T = 60 min): 1 h; for CLint scaled at 3 μM: CLint(liver). The method, then: Microsome stability was determined in human, rat, and mouse, liver microsomes. Compound at 3 μM final concentration along with 0.5 mg/mL microsome protein and 1 mM NADPH was incubated for 0, 5, 15, 30 and 60 min. As a negative control, test compound was incubated with microsomes in the absence of NADPH. Samples were quenched with methanol and centrifuged for 25 min at 2500 rpm to precipitate proteins. Supernatants were analyzed (N=3) by LC-MS/MS. The In peak area ratio (compound peak area/internal standard peak area) was plotted against time and the gradient of the line determined the elimination rate constant [k=(−1)(slope)].
R^2 is the correlation coefficient of the linear regression for the determination of kinetic constant. T1/2 is the half life and CLint (mic) is the intrinsic clearance. CLint(liver)=CLint (mic)*mg microsomal protein/g liver weight*g liver weight/kg body weight. Liver weight/kg body weight is 20 g/kg for human.

Where [3] appears, read: T1/2, human microsomes, 3 μM compound, 0.5 mg/mL protein, 1 mM NADPH.

Take `O=S(=O)(Nc1ccc(-c2cnc3cc(Cl)ccc3n2)cc1)C(F)(F)F` [CA77, reference compound]: in data set [1] (i.v. 1 mg/kg), the AUCINF_obs worked out at 35.8 ng·h/mL; the AUClast turned out to be 35.3 ng·h/mL; the CL_obs was 465 mL/min/kg; the Cmax (as a rule, the maximum level reached in the sampled fluid or tissue) is listed as 36.2 ng/mL. Also, in data set [1] (i.v. 1 mg/kg), the MRTINF_obs was determined as 57.1 min, the T1/2 was determined as 38.1 min, the time to peak (Tmax) (usually the time from dosing to the highest level) amounted to 4.98 min and the VSS_obs was found to be 26.548 L/kg. Moreover, in data set [1] (p.o. 30 mg/kg vs i.v. 1 mg/kg), the F % is listed as 124%. In data set [1] (p.o. 30 mg/kg), the AUCINF_obs is 1458 ng·h/mL, the AUClast came to 1317 ng·h/mL, the CL_obs worked out at 343 mL/min/kg and the highest concentration (Cmax) was 278 ng/mL. Moreover, in data set [1] (p.o. 30 mg/kg), the MRTINF_obs was found to be 238 min, the T1/2 was found to be 131 min and the Tmax turned out to be 120 min.
Consider `Clc1ccc2c(c1)OCC(c1ccc(-c3ccccc3)cc1)=N2` [CA39, 3-([1,1′-biphenyl]-4-yl)-7-chloro-2H-benzo[b][1,4]oxazine, reference compound], for which, in data set [2] (Time 5), the “CMA activity (fluorescent puncta per cell, relative to untreated cells = 1)” value is recorded as 2.457. The “CMA activity (fluorescent puncta per cell, relative to untreated cells = 1)” value in data set [2] (Time 10) worked out at 2.619. Further, the “CMA activity (fluorescent puncta per cell, relative to untreated cells = 1)” value in data set [2] (Time 20) is 3.587. In data set [2] (Time 30), the “CMA activity (fluorescent puncta per cell, relative to untreated cells = 1)” value is 4.374. Moreover, in “in vitro” (human, microsomes), the half-life (as a rule, the time in which the quantity being followed falls by half) at 3 μM amounted to 37.9 min; the CLint(mic) stood at 36.6 µL/min/mg; the “Remaining (T = 60 min)” value is on record as 30.1%; the CLint scaled (commonly the rate of metabolic loss divided by the concentration) at 3 μM amounted to 32.9 mL/min/kg.
As to `C[C@]12CC[C@H]3[C@@H](CCC4=CC(=O)CC[C@@]43C)[C@@H]1CC[C@@H]2O` [Testosterone], in “in vitro” (setting [3]), the half-life at 3 μM was found to be 57.5 min.
As for `O=C(O)Cc1ccccc1Nc1c(Cl)cccc1Cl` [Diclofenac], the half-life at 3 μM in the data set “in vitro” (setting [3]) was 15.7 min. In the data set “in vitro” (human, microsomes), this compound displayed a half-life at 3 μM of 105 min and a CLint scaled at 3 μM of 94.4 mL/min/kg.
For `Clc1ccc2nc(-c3ccc(-c4ccccc4)cc3)cnc2c1` [CA39.1, 2-([1,1′-biphenyl]-4-yl)-6-chloroquinoxaline], the “CMA activity (fluorescent puncta per cell, relative to untreated cells = 1)” value in data set [2] (Time 5) stood at 2.107; in data set [2] (Time 10), 2.233; in data set [2] (Time 20), 2.605; in data set [2] (Time 30), 2.925. The compound further registered a half-life at 3 μM in “in vitro” (human, microsomes) above 145 min. The same compound registered a CLint(mic) in the data set “in vitro” (human, microsomes) below 9.6 µL/min/mg. Moreover, in “in vitro” (human, microsomes), the “Remaining (T = 60 min)” value turned out to be 96.0%. The CLint scaled at 3 μM in the data set “in vitro” (human, microsomes) was below 8.6 mL/min/kg.
